pIC50: −log10 of the molar value.
Biological target: CK2A1 (CK2α/β) (Homo sapiens, UniProt P68400)
Assay: CK2 kinase assay, CK2A1 (CK2α/β)
Type: biochemical
Conditions: Table A; read-out: CK2A1 (CK2α/β) (IC50)

Chain of CK2A1 (CK2α/β) (P68400 whole entry, species assumed): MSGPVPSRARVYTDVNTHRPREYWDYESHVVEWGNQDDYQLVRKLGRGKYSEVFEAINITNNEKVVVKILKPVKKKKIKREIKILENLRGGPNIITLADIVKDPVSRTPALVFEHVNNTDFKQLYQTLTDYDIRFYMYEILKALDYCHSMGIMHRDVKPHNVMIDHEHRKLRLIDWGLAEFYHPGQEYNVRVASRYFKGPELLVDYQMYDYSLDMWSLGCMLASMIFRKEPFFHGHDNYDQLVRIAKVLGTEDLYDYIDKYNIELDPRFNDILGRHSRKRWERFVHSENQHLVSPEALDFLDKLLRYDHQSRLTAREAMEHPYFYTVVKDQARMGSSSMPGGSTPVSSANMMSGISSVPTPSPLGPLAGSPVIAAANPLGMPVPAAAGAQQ
Chain of CK2A1 (CK2α/β) (P67870 whole entry partner, species assumed): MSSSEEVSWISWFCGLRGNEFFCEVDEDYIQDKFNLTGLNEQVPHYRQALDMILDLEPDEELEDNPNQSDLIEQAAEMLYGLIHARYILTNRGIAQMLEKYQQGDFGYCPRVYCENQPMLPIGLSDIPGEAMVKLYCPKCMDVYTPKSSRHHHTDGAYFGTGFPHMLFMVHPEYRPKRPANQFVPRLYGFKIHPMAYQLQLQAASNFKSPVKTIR

| SMILES | pIC50 |
| --- | --- |
| COC(=O)N[C@H]1CCN(c2cc(C(N)=O)cc(Nc3nc(NC4CC4)c4ncc(C#N)n4n3)c2Cl)C[C@@H]1O [Example 388, methyl ((3S,4S)-1-(5-carbamoyl-2-chloro-3-((7-cyano-4-(cyclopropylamino)imidazo[2,1-f][1,2,4]triazin-2-yl)amino)phenyl)-3-hydroxypiperidin-4-yl)carbamate] | 8.29 |
| CN1CCN(CC(O)c2cc(C#N)cc(Nc3nc(NC4CC4)c4ncc(C#N)n4n3)c2Cl)CC1 (stereo not drawn) [Example 686, 2-((2-chloro-5-cyano-3-(1-hydroxy-2-(4-methylpiperazin-1-yl)ethyl)phenyl)amino)-4-(cyclopropylamino)imidazo[2,1-f][1,2,4]triazine-7-carbonitrile] | 8.89 |
| N#Cc1cc(Nc2nc(NC3CC3)c3ncc(C#N)n3n2)c(Cl)c(N2CC(N3CCOCC3)C2)c1 [Example 152, 2-((2-chloro-5-cyano-3-(3-(4-morpholinyl)-1-azetidinyl)phenyl)amino)-4-(cycloproplamino)imidazo [2,1-f][1,2,4]triazine-7-carbonitrile] | 9.28 |
| N#Cc1cc(CN2CCNC(C(F)(F)F)C2)c(Cl)c(Nc2nc(NC3CC3)c3ncc(C#N)n3n2)c1 (racemic) [Example 696, (+/−)-2-((2-chloro-5-cyano-3-((3-(trifluoromethyl)piperazin-1-yl)methyl)phenyl)amino)-4-(cyclopropylamino)imidazo[2,1-f][1,2,4]triazine-7-carbonitrile] | 8.83 |
| COC(=O)NCC1CN(c2cc(C#N)cc(Nc3nc(NC4CC4)c4ncc(C#N)n4n3)c2Cl)CCO1 (stereo not drawn) [Example 710, methyl N-{[4-(2-chloro-5-cyano-3-{[7-cyano-4-(cyclopropylamino)imidazo[2,1-f][1,2,4]triazin-2-yl]amino}phenyl)morpholin-2-yl]methyl}carbamate] | 9.12 |
| CCNc1nc(Nc2cc(C#N)cc(N3CC[C@H]4NC(=O)CO[C@@H]4C3)c2Cl)nn2c(C#N)cnc12 (racemic) [Example 370, (+/−)-2-((2-chloro-5-cyano-3-((4aR,8aR)-2-oxohexahydro-1H-pyrido[3,4-b][1,4]oxazin-6(7H)-yl)phenyl)amino)-4-(ethylamino)imidazo[2,1-f][1,2,4]triazine-7-carbonitrile] | 9.46 |
| N#Cc1cc(Nc2nc(NC3CC3)c3ncc(C#N)n3n2)c(Cl)c(C2CCCC(N3CCOCC3)C2)c1 (racemic) [Example 725, (+/−) cis and trans-2-((2-chloro-5-cyano-3-(3-morpholinocyclohexyl)phenyl)amino)-4-(cyclopropylamino)imidazo[2,1-f][1,2,4]triazine-7-carbonitrile] | 8.86 |
| CCNc1nc(Nc2cc(NC(=O)OC)cc(N3CCN(C)CC3)c2F)nn2c(C#N)cnc12 [Example 386, methyl (3-((7-cyano-4-(ethylamino)imidazo[2,1-f][1,2,4]triazin-2-yl)amino)-4-fluoro-5-(4-methylpiperazin-1-yl)phenyl)carbamate] | 8.24 |
| COCCC(=O)N1CCN(c2cc(C#N)cc(Nc3nc(NC4CC4)c4ncc(C#N)n4n3)c2Cl)CC1 [Example 87, 2-((2-chloro-5-cyano-3-(4-(3-methoxypropanoyl)-1-piperazinyl)phenyl)amino)-4-(cyclopropylamino) imidazo[2,1-f][1,2,4] triazine-7-carbonitrile] | 9.12 |
| N#CCC1(N2CCC(c3cc(C#N)cc(Nc4nc(NC5CC5)c5ncc(C#N)n5n4)c3Cl)CC2)COC1 [Example 378, 2-((2-chloro-5-cyano-3-(1-(3-(cyanomethyl)oxetan-3-yl)piperidin-4-yl)phenyl)amino)-4-(cyclopropylamino)imidazo[2,1-f][1,2,4]triazine-7-carbonitrile] | 9.09 |
| COC[C@H](NC[C@H]1CN(c2cc(C#N)cc(Nc3nc(NC4CC4)c4ncc(C#N)n4n3)c2Cl)CCN1C)C1CC1 [Example 706, 2-({2-chloro-5-cyano-3-[(3S)-3-({[(1R)-1-cyclopropyl-2-methoxyethyl]amino}methyl)-4-methylpiperazin-1-yl]phenyl}amino)-4-(cyclopropylamino)imidazo[2,1-f][1,2,4]triazine-7-carbonitrile] | 8.75 |
| CCNc1nc(Nc2cc(NC(=O)OC)cc(C3CCN(C)CC3)c2Cl)nn2c(C#N)cnc12 [Example 398, methyl (4-chloro-3-((7-cyano-4-(ethylamino)imidazo[2,1-f][1,2,4]triazin-2-yl)amino)-5-(1-methylpiperidin-4-yl)phenyl)carbamate] | 8.48 |
| COC(=O)N[C@@H]1CCN(c2cc(C#N)cc(Nc3nc(NC4CC4)c4ncc(C#N)n4n3)c2Cl)C[C@H]1OC(=O)C(C)OP(=O)(O)O (stereo partly drawn) [Example 197, (3R,4R)-1-(2-chloro-5-cyano-3-((7-cyano-4-(cyclopropylamino)imidazo[2,1-f][1,2,4]triazin-2-yl)amino)phenyl)-4-((methoxycarbonyl)amino)-3-piperidinyl 2-(phosphonooxy)propanoate] | 8.30 |
| CC(=O)N[C@@H]1CN(c2cc(C#N)cc(Nc3nc(NC4CC4)c4ncc(C#N)n4n3)c2Cl)CC[C@H]1O (racemic) [Example 190, (+/−)-N-((3R,4R)-1-(2-chloro-5-cyano-3-((7-cyano-4-(cyclopropylamino)imidazo[2,1-f][1,2,4]triazin-2-yl)amino)phenyl)-4-hydroxypiperidin-3-yl)acetamide] | 9.32 |
| CS(=O)(=O)N1CCN(Cc2cc(C#N)cc(Nc3nc(NC4CC4)c4ncc(C#N)n4n3)c2Cl)CC1 [Example 401, 2-((2-chloro-5-cyano-3-((4-(methylsulfonyl)piperazin-1-yl)methyl)phenyl)amino)-4-(cyclopropylamino)imidazo[2,1-f][1,2,4]triazine-7-carbonitrile] | 9.42 |
| N#Cc1cc(Nc2nc(NC3CC3)c3ncc(C#N)n3n2)c(F)c(N2CCN([C@@H]3COC[C@H]3O)CC2)c1 (racemic) [Example 552, rac-2-((5-cyano-2-fluoro-3-(4-((3R,4S)-4-hydroxytetrahydrofuran-3-yl)piperazin-1-yl)phenyl)amino)-4-(cyclopropylamino)imidazo[2,1-f][1,2,4]triazine-7-carbonitrile] | 8.20 |
| CN1CCC2CN(c3cc(C#N)cc(Nc4nc(NC5CC5)c5ncc(C#N)n5n4)c3Cl)CCC21 (stereo not drawn) [Example 443, 2-((2-chloro-5-cyano-3-(1-methylhexahydro-1H-pyrrolo[3,2-c]pyridin-5(6H)-yl)phenyl)amino)-4-(cyclopropylamino)imidazo[2,1-f][1,2,4]triazine-7-carbonitrile] | 8.53 |
| COCCN1CC(N2CCC(c3cc(C#N)cc(Nc4nc(NC5CC5)c5ncc(C#N)n5n4)c3Cl)CC2)C1 [Example 325, 2-((2-chloro-5-cyano-3-(1-(1-(2-methoxyethyl)-3-azetidinyl)-4-piperidinyl)phenyl)amino)-4-(cyclopropylamino)imidazo [2,1-f][1,2,4]triazine-7-carbonitrile] | 9.24 |

Now from value to compound:

| pIC50 | SMILES |
| --- | --- |
| 8.52 | CCNc1nc(Nc2cc(C#N)cc(N3CC[C@@H](NC(=O)OC)[C@@H](N(C)C(C)C(N)=O)C3)c2Cl)nn2c(C#N)cnc12 (stereo in doubt) [Example 769, methyl N-[(3S,4R)-3-{[(1S)-1-carbamoylethyl](methyl)amino}-1-(2-chloro-5-cyano-3-{[7-cyano-4-(ethylamino)imidazo[2,1-f][1,2,4]triazin-2-yl]amino}phenyl)piperidin-4-yl]carbamate] |
| 9.19 | CCNc1nc(Nc2cc(C#N)cc(N3C[C@@H]4C[C@H]3CN4C)c2Cl)nn2c(C#N)cnc12 [Example 773, 2-((2-chloro-5-cyano-3-((1S,4S)-5-methyl-2,5-diazabicyclo[2.2.1]heptan-2-yl)phenyl)amino)-4-(ethylamino)imidazo[2,1-f][1,2,4]triazine-7-carbonitrile] |
| 9.27 | CCNc1nc(Nc2ccc3c(c2)c(C#N)cn3C2CCN(C3CNC3)CC2)nn2c(C#N)cnc12 [Example 832, 2-((1-(1-(azetidin-3-yl)piperidin-4-yl)-3-cyano-1H-indol-5-yl)amino)-4-(ethylamino)imidazo[2,1-f][1,2,4]triazine-7-carbonitrile] |
| 8.85 | C[C@@H](O)C(=O)N1CC2(CCN(c3cc(C#N)cc(Nc4nc(NC5CC5)c5ncc(C#N)n5n4)c3Cl)CC2)C1 [Example 794, (R)-2-((2-chloro-5-cyano-3-(2-(2-hydroxypropanoyl)-2,7-diazaspiro[3.5]nonan-7-yl)phenyl)amino)-4-(cyclopropylamino)imidazo[2,1-f][1,2,4]triazine-7-carbonitrile] |
| 8.64 | CCNc1nc(Nc2cc(C#N)cc(N3CC[C@@H]4[C@@H](C3)OC(=O)N4[C@H]3CCOC3)c2Cl)nn2c(C#N)cnc12 (single isomer, unassigned) [Example 841] |
| 8.91 | COC(=O)N[C@H]1CCN(c2cc(C#N)cc(Nc3nc(NC4CC4)c4ncc(C#N)n4n3)c2Cl)C[C@H]1NC1COC1 (single isomer, unassigned) [Example 745] |
| 8.87 | COC(=O)N[C@H]1CCN(c2cc(C#N)cc(Nc3nc(NC4CC4)c4ncc(C#N)n4n3)c2Cl)CC1N(C)C1COC1 (stereo partly drawn) [Example 763, methyl N-[(4S)-1-(2-chloro-5-cyano-3-{[7-cyano-4-(cyclopropylamino)imidazo [2,1-f][1,2,4]triazin-2-yl]amino}phenyl)-3-[methyl(oxetan-3-yl)amino]piperidin-4-yl]carbamate] |
| 8.18 | CC(O)CN1CC2(CCN(c3cc(C#N)cc(Nc4nc(NC5CC5)c5ncc(C#N)n5n4)c3Cl)CC2)C1 (racemic) [Example 797, (+/−)-2-((2-chloro-5-cyano-3-(2-(2-hydroxypropyl)-2,7-diazaspiro[3.5]nonan-7-yl)phenyl)amino)-4-(cyclopropylamino)imidazo[2,1-f][1,2,4]triazine-7-carbonitrile] |
| 8.91 | CN[C@@H]1CCC[C@H](c2cc(C#N)cc(Nc3nc(NC4CC4)c4ncc(C#N)n4n3)c2Cl)C1 [Example 727, 2-({2-chloro-5-cyano-3-[(1S,3R)-3-(methylamino)cyclohexyl]phenyl}amino)-4-(cyclopropylamino)imidazo [2,1-f][1,2,4]triazine-7-carbonitrile] |
